Where two headings read alike, the source gives them in different places.
What was measured:
NIH3T3 cells [1] = experiment: JC-10 mitochondrial membrane potential assay; assay type: cell-based, mouse; conditions: 1 μM staurosporine alone, 6 hours
NIH3T3 cells [2] = assay type: cell-based, mouse; conditions: 1 μM staurosporine alone, 24 hours
[3] = assay type: cell-based; conditions: human, SH-SY5Y cells
NIH3T3 cells [4] = experiment: MTT cell proliferation assay; assay type: cell-based, mouse; conditions: 1 μM staurosporine alone, 24 hours
[5] = assay type: cell-based; conditions: rat, PC12 cells
caspase-3/7 = experiment: Apo-ONE Homogeneous Caspase-3/7 Assay in NIH3T3 cells; assay type: cell-based, mouse; conditions: 1 μM staurosporine alone, 6 hours
[6] = assay type: cell-based; conditions: human, U87MG cells

CN[C@@H]1C[C@H]2O[C@@](C)([C@@H]1OC)n1c3ccccc3c3c4c(c5c6ccccc6n2c5c31)C(=O)NC4 [staurosporine]
Mitochondrial membrane potential (NIH3T3 cells [1]): significantly lost mitochondrial membrane potential | Cell death (NIH3T3 cells [2]): over 90% | viability at 24 h, 1 μM [3]: 6% | Cell viability by MTT (NIH3T3 cells [4]): reduced the cell viability dramatically | viability at 24 h, 1 μM [5]: 4% | Caspase activation (caspase-3/7 activity) (caspase-3/7): induced significant caspase activation | viability at 24 h, 1 μM [6]: 8%

— PMC4043716 (Drug Design, Development and Therapy, 2014)
